The values that follow come from ChEMBL document CHEMBL2303647, “Data associated with the publication PLoS ONE, 8(3), e57888, (2013) PMID: 23505445. Compounds: GSK PKIS; Assays: NIH NCATS”.

In test [1] the target is T1, Coelenterazine h 2-monooxygenase (Renilla reniformis, UniProt P27652).
T1 sequence (P27652 whole entry): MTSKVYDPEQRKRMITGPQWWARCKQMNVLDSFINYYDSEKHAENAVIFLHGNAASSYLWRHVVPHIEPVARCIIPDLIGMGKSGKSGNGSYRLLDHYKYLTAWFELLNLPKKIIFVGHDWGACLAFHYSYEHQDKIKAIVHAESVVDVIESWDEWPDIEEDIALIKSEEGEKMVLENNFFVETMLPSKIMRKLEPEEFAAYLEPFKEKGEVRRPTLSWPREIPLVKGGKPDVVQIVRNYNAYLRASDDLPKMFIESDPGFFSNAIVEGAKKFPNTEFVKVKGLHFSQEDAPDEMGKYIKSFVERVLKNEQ
Description: GSK_PKIS: Inhibition of Sea Pansy Luciferase (Data from PubChem: AID 652015) [NIH NCATS]

Test [2] has as its target Luciferin 4-monooxygenase (Photinus pyralis, UniProt P08659).
Description: GSK_PKIS: Inhibition of Firefly Luciferase (Data from PubChem: AID 652016) [NIH NCATS]

Luciferin 4-monooxygenase, sequence (P08659 whole entry): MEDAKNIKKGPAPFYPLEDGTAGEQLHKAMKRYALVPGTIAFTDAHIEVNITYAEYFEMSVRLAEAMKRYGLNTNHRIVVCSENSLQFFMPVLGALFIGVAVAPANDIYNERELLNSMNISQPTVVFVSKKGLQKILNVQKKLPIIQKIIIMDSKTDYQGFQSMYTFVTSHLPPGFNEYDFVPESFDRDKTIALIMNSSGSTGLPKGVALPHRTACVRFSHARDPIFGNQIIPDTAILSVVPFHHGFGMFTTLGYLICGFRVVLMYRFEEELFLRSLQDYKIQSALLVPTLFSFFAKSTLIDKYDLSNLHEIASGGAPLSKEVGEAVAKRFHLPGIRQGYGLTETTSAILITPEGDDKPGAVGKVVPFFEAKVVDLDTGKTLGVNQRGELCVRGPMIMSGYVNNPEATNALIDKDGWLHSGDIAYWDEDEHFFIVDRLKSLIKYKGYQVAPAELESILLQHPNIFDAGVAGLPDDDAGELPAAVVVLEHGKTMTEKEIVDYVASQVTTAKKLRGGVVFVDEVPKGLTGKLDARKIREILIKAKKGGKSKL

As for `CN1CCN(CCCNc2nc3ccc(Oc4ccc(NC(=O)Nc5cc(C(F)(F)F)ccc5F)cc4)cc3[nH]2)CC1.Cl` [GW700494A], the AC50 in test [1] (read-out: AC50) is 23.1 µM; in test [2] it was “Phenotype: Inactive; Curve_Description: None”.

As for `COc1ccc(CNC(=O)c2ccc(-c3cc(-c4nnc(C)o4)ccc3C)cc2)cc1` [GW701032X], the AC50 result in test [1] and in test [2] was “Phenotype: Inactive; Curve_Description: None” each time.

Turning to `COC(=O)Nc1nc2cc(Oc3ccc(NC(=O)Nc4cccc(C(=O)O)c4)cc3)ccc2[nH]1` [GW701427A], the AC50 was determined as 41.1 µM in test [1] (read-out: AC50) and 0.116 µM in test [2] (read-out: AC50).

With `CC(=O)Nc1cccc(C#Cc2cncnc2Nc2ccc(OCc3cccc(F)c3)c(Cl)c2)c1` [GW703087X], the AC50 entry in test [1] and in test [2] was “Phenotype: Inactive; Curve_Description: None” each time.

As for `c1cc(-c2cnn3nc(N4CCOCC4)ccc23)nc(NC2CC2)n1` [GW708336X], the figures for the AC50 entry in test [1] and in test [2] (read-out: AC50) were “Phenotype: Inactive; Curve_Description: None” and 4.61 µM, respectively.

`Cc1nnc(-c2ccc(C)c(-c3ccc(C(=O)NCc4ccc(Cl)cc4)cc3)c2)o1` [GW708893X]: the half-maximal activity concentration (AC50) entry in test [1] and in test [2] was “Phenotype: Inactive; Curve_Description: None” throughout.

For the compound `Cl.O=C(Nc1ccc(Oc2ccc3[nH]c(NC(=O)c4ccccc4)nc3c2)cc1)Nc1cc(C(F)(F)F)ccc1F` [GW709042A], the AC50 result in test [1] and in test [2] was “Phenotype: Inactive; Curve_Description: None” each time.

Regarding `c1ccc(-c2n[nH]cc2-c2ccnc(-c3ccc(OCCn4ccnc4)cc3)c2)nc1` [GW711782X], the AC50 entry in test [1] and in test [2] was “Phenotype: Inactive; Curve_Description: None” throughout.

Turning to `Cc1nnc(-c2cccc(-c3ccc(C(=O)NCC4CC4)cc3)c2)o1` [GW734508X], the AC50 was 36.6 µM in test [1] (read-out: AC50) and “Phenotype: Inactive; Curve_Description: None” in test [2].

Regarding `Cc1ccc(NC(=O)c2ccoc2)cc1-c1ccc(C(=O)NCC2CC2)cc1` [GW743024X], the AC50 result in test [1] is “Phenotype: Inactive; Curve_Description: None”; in test [2] (read-out: AC50), 41.1 µM.

For `Cl.NC(=O)c1cccc(Nc2nccc(Nc3cccc(F)c3)n2)c1` [GW759710A], the AC50 entry in test [1] is “Phenotype: Inactive; Curve_Description: None”; in test [2] (read-out: AC50), 0.73 µM.

Take `COc1ccc(-c2oc3ncnc(N)c3c2-c2ccc(NC(=O)Nc3cc(C(F)(F)F)ccc3F)cc2)cc1.Cl` [GW768505A]: the AC50 entry in test [1] and in test [2] was “Phenotype: Inactive; Curve_Description: None” throughout.

For `Cc1ccc(NC(=O)c2ccnc(N3CCCC3)c2)cc1-c1ccc(C(=O)NCC2CC2)cc1` [GW769076X], the AC50 in test [1] (read-out: AC50) is 29.1 µM; in test [2], “Phenotype: Inactive; Curve_Description: None”.

For the compound `Cc1nn(C)c2cc(N(C)c3ccnc(Nc4cccc(S(N)(=O)=O)c4)n3)ccc12.Cl` [GW770220A], the AC50 entry in test [1] and in test [2] was “Phenotype: Inactive; Curve_Description: None” throughout.

As for `Cl.Nc1ncnc2occ(-c3ccc(NC(=O)Nc4cc(C(F)(F)F)ccc4F)cc3)c12` [GW770249A], the AC50 entry in test [1] and in test [2] was “Phenotype: Inactive; Curve_Description: None” in each case.

`Nc1ncnc2occ(-c3ccc(NC(=O)Nc4cc(C(F)(F)F)ccc4F)cc3)c12` [GW770249X]: the AC50 result in test [1] and in test [2] was “Phenotype: Inactive; Curve_Description: None” throughout.

For the compound `Cc1c2ccc(N(C)c3ccnc(Nc4cccc(S(N)(=O)=O)c4)n3)cc2nn1C` [GW771127A], the AC50 in test [1] (read-out: AC50) amounted to 18.3 µM; in test [2] (read-out: AC50), 13 µM.

In the case of `CNC(=O)c1cccc(C#Cc2cncnc2Nc2ccc(OCc3cccc(F)c3)c(Cl)c2)c1` [GW772405X], the AC50 entry in test [1] and in test [2] was “Phenotype: Inactive; Curve_Description: None” each time.

Turning to `N#Cc1cccc(Nc2nccc(-c3cnn4ncccc34)n2)c1` [GW778894X], the AC50 result in test [1] and in test [2] was “Phenotype: Inactive; Curve_Description: None” each time.

For `CCN(CC)Cc1ccc(Nc2nccc(-c3cnn4ncccc34)n2)cc1` [GW780056X], the AC50 in test [1] (read-out: AC50) is 20.6 µM; in test [2], “Phenotype: Inactive; Curve_Description: None”.

As for `Nc1nc(-c2cccc(Cl)c2)c(-c2ccc3ncccc3n2)s1` [GW780159X], the AC50 entry in test [1] and in test [2] was “Phenotype: Inactive; Curve_Description: None” each time.

For the compound `Clc1ccc(CNc2nccc(-c3cnn4ncccc34)n2)cc1` [GW781673X], the AC50 result in test [1] and in test [2] was “Phenotype: Inactive; Curve_Description: None” throughout.

With `NC(=O)c1cccc(Nc2nccc(Nc3cccc4[nH]ncc34)n2)c1` [GW782612X], the AC50 entry in test [1] is “Phenotype: Inactive; Curve_Description: None”; in test [2] (read-out: AC50), 13 µM.

Take `Cc1ccc(C(=O)NC2CCCCC2)cc1-c1ccc(C(=O)NCC2CC2)cc1` [GW782907X]: the AC50 result in test [1] and in test [2] was “Phenotype: Inactive; Curve_Description: None” throughout.

As to `Cc1ccc(C(=O)NC2CCC2)cc1-c1ccc(C(=O)NCC2CC2)cc1` [GW782912X], the AC50 entry is “Phenotype: Inactive; Curve_Description: None” in test [1] and 29.1 µM in test [2] (read-out: AC50).

As for `COc1cccc(-n2ncc3c(N/N=C/c4ccc(C(=O)NCCN(C)C)cc4)ncnc32)c1.Cl` [GW784307A], the figures for the AC50 entry in test [1] and in test [2] (read-out: AC50) were “Phenotype: Inactive; Curve_Description: None” and 16.3 µM, respectively.

`CN1CCN(Cc2ccc(-c3cc4ncnc(Nc5ccc(OCc6cccc(F)c6)c(Cl)c5)c4s3)o2)CC1` [GW784684X]: the values for the AC50 in test [1] (read-out: AC50) and in test [2] were 20.6 µM and “Phenotype: Inactive; Curve_Description: None”, respectively.

Consider `COc1cccc(-n2ncc3c(N/N=C/c4ccncc4)ncnc32)c1` [GW784752X], for which the AC50 entry in test [1] is “Phenotype: Activator; Curve_Description: None”; in test [2] (read-out: AC50), 6.51 µM.

On to `CCn1c(-c2nonc2N)nc2ccc(F)cc21` [GW785404X], for which the AC50 result in test [1] and in test [2] was “Phenotype: Inactive; Curve_Description: None” in each case.

Turning to `Nc1nc(-c2ccc(F)cc2)c(-c2ccc3ncccc3n2)s1` [GW785804X], the AC50 entry in test [1] and in test [2] was “Phenotype: Inactive; Curve_Description: None” throughout.

In the case of `Cc1ccc(C(=O)NC(C)C)cc1-c1ccc(C(=O)NCC2CC2)cc1` [GW785974X], the AC50 result in test [1] and in test [2] was “Phenotype: Inactive; Curve_Description: None” in each case.

As to `Cc1cccc(-c2n[nH]cc2-c2ccc3ncccc3n2)n1` [GW786460X], the AC50 result in test [1] and in test [2] was “Phenotype: Inactive; Curve_Description: None” throughout.

`CCCNc1cccc(-n2ncc3c(N/N=C/c4ccncc4)ncnc32)c1` [GW794607X]: the AC50 entry in test [1] and in test [2] was “Phenotype: Inactive; Curve_Description: None” each time.

Regarding `CC(=O)Nc1cccc(C#Cc2cncnc2Nc2ccc(OCc3cccc(F)c3)c(Cl)c2)n1` [GW794726X], the AC50 result in test [1] and in test [2] was “Phenotype: Inactive; Curve_Description: None” in each case.

As to `Nc1ncnc2occ(-c3ccc(NC(=O)Nc4cc(C(F)(F)F)cc(C(F)(F)F)c4)cc3)c12` [GW795486X], the figures for the AC50 in test [1] (read-out: AC50) and in test [2] were 16.3 µM and “Phenotype: Inactive; Curve_Description: None”, respectively.

Turning to `Nc1ncnc2occ(-c3ccc(NC(=O)Nc4cccc(C(F)(F)F)c4)cc3)c12` [GW795493X], the AC50 entry in test [1] and in test [2] was “Phenotype: Inactive; Curve_Description: None” throughout.

Consider `Cc1ccc(NC(=O)CC2CC2)cc1-c1ccc(C(=O)NCC2CC2)cc1` [GW796920X], for which the AC50 entry in test [1] was “Phenotype: Inactive; Curve_Description: None”; in test [2] (read-out: AC50), 18.3 µM.

Turning to `CCC(=O)Nc1ccc(C)c(-c2ccc(C(=O)NCC3CC3)cc2)c1` [GW796921X], the results for the AC50 result in test [1] and in test [2] (read-out: AC50) were “Phenotype: Inactive; Curve_Description: None” and 18.3 µM, respectively.

Consider `Nc1nccc(C#Cc2cncnc2Nc2ccc(OCc3cccc(F)c3)c(Cl)c2)n1` [GW799251X], for which the AC50 result is “Phenotype: Inactive; Curve_Description: None” in test [1] and 14.6 µM in test [2] (read-out: AC50).

As to `COc1cc(Nc2nccc(-c3cnn4ncccc34)n2)cc(OC)c1` [GW801372X], the AC50 entry in test [1] and in test [2] was “Phenotype: Inactive; Curve_Description: None” each time.

Regarding `COc1cccc(COc2cc(-n3cnc4ccccc43)sc2C(N)=O)c1` [GW804482X], the AC50 in test [1] (read-out: AC50) was 20.6 µM; in test [2] it was “Phenotype: Inactive; Curve_Description: None”.

With `CC(C)c1ccc(Nc2nccc(-c3cnn4ncccc34)n2)cc1` [GW805758X], the AC50 result is “Phenotype: Inactive; Curve_Description: None” in test [1] and 20.6 µM in test [2] (read-out: AC50).

`c1cnn2ncc(-c3ccnc(Nc4ccc5c(c4)OCCO5)n3)c2c1` [GW806290X]: the AC50 result was “Phenotype: Inactive; Curve_Description: None” in test [1] and 2.91 µM in test [2] (read-out: AC50).

For `CN(c1ccc(NC(=O)Nc2ccc(OC(F)(F)F)cc2)cc1)c1ccnc(Nc2cccc(S(N)(=O)=O)c2)n1` [GW806742X], the AC50 result is “Phenotype: Inactive; Curve_Description: None” in test [1] and 18.3 µM in test [2] (read-out: AC50).
